Legend:
potassium arsenate = compound: O=[As]([O-])(O)O.[K+] [potassium arsenate]; test: thermal stability z-score vs DMSO; higher = more thermally stabilized by treatment; settings: HeLa; arsenate concentration 1 mM
Method: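 Cellular thermal proteome profiling in HeLa cells treated with 1 mM arsenate for 1 h (DMSO pretreatment), heated to ten temperatures (37-66.3 °C). Soluble protein was quantified by TMT mass spectrometry relative to DMSO controls; the thermal stability score was transformed to a z-score; mean of n = 3 experiments.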

lipoamide = compound: NC(=O)CCCCC1CCSS1 [lipoamide]; test: as above; settings: HeLa, lipoamide concentration 100 µM
Method: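 Cellular thermal proteome profiling in HeLa cells. Cells were treated with 100 µM lipoamide for 1 h, with or without 1 mM arsenate for a further 1 h, then heated to ten temperatures (37-66.3 °C), and soluble protein was quantified by TMT mass spectrometry relative to 0.1% DMSO controls. The thermal stability score (sum of log2 fold changes minus the abundance score) was transformed to a z-score; mean of n = 3 experiments.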

[1] = arsenate co-treatment: 1 mM arsenate 1 h
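Note: each temperature applied for 3 min, abundance score taken as mean log2 fold change at the two lowest temperatures, z-score obtained by mean subtraction and division by SD.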

Sequence of UniProt P05387 (P05387 whole entry): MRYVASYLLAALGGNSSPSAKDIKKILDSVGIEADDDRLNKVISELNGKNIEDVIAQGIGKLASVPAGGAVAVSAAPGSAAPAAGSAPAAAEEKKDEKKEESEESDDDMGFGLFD
Sequence of UniProt Q96S38 (Q96S38 whole entry): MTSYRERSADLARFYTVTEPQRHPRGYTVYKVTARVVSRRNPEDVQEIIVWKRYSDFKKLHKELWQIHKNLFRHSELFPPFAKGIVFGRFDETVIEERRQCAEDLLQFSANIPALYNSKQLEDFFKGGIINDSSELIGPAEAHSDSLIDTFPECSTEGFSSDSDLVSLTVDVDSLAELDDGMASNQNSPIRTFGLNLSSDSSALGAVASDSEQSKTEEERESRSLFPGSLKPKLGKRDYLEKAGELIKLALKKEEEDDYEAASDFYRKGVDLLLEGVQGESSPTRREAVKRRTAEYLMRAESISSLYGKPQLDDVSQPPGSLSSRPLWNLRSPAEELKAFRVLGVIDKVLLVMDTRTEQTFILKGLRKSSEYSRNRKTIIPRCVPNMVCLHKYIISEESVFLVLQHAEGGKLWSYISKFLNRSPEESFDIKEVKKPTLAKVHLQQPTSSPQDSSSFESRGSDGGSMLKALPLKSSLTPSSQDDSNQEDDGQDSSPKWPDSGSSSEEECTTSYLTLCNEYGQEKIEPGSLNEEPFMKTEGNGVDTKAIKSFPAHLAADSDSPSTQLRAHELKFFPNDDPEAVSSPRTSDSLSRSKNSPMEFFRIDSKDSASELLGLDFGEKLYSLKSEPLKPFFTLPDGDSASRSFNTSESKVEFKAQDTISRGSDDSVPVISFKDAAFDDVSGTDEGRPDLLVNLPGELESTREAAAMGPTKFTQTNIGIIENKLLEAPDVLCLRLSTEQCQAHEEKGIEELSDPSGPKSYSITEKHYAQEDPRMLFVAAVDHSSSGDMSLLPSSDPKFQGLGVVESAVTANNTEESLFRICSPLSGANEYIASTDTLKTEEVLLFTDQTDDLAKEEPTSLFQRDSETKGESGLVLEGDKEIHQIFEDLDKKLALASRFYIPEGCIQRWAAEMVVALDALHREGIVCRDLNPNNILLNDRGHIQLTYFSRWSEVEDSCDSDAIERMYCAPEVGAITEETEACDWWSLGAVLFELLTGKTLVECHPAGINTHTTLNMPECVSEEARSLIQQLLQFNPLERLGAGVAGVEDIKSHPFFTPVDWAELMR
Sequence of UniProt Q9BUL9 (Q9BUL9 whole entry): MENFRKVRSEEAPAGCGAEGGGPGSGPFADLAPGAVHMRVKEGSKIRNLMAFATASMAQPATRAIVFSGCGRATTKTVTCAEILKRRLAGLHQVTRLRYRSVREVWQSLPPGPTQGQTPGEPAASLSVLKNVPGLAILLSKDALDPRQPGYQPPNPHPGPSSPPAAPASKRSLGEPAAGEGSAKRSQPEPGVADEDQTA
Sequence of UniProt P78345 (P78345 whole entry): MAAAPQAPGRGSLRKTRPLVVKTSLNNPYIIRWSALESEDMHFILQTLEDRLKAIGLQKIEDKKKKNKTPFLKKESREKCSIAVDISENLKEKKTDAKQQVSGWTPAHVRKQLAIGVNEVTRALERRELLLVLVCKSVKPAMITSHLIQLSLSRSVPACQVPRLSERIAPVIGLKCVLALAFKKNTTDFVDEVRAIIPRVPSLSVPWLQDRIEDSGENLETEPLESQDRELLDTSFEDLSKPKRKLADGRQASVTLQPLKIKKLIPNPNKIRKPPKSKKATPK
Sequence of UniProt P23443 (P23443 whole entry, looked up): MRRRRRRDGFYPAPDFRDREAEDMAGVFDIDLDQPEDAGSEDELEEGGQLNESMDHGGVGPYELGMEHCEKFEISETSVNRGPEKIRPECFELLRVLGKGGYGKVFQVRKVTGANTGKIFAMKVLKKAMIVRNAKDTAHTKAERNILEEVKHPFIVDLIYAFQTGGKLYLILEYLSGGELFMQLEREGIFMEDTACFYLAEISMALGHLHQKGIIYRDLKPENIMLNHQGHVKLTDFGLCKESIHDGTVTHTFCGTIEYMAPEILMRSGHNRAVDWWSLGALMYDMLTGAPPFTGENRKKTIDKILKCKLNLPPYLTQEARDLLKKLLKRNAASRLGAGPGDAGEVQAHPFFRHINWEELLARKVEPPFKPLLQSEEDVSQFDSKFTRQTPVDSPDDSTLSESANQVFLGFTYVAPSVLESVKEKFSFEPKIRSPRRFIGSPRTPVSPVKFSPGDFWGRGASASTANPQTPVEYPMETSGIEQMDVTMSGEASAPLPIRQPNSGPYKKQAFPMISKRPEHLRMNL
Sequence of UniProt Q96AT9 (Q96AT9 whole entry): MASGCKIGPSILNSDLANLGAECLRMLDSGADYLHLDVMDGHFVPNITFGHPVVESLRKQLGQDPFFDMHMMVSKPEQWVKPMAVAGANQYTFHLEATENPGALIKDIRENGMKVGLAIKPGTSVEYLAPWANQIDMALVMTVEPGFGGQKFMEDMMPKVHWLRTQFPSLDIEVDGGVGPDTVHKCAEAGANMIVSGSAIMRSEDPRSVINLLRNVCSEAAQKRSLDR
Sequence of UniProt P49247 (P49247 whole entry): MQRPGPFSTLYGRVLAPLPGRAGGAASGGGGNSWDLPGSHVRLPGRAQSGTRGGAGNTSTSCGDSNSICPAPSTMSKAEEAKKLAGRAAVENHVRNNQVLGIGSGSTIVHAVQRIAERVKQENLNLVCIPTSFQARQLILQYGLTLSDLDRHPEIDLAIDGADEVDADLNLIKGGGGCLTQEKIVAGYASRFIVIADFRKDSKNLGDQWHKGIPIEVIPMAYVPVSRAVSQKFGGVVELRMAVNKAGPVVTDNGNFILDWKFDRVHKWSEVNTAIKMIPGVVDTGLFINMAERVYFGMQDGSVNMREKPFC
Sequence of UniProt P78346 (P78346 whole entry): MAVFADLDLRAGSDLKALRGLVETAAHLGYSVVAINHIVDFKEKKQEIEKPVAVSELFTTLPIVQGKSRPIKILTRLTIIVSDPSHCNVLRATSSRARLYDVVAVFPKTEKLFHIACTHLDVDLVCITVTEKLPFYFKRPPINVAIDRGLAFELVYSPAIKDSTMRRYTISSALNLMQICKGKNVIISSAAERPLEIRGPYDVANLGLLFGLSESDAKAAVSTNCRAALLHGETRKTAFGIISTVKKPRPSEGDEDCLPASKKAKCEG
Sequence of UniProt Q5VT52 (Q5VT52 whole entry): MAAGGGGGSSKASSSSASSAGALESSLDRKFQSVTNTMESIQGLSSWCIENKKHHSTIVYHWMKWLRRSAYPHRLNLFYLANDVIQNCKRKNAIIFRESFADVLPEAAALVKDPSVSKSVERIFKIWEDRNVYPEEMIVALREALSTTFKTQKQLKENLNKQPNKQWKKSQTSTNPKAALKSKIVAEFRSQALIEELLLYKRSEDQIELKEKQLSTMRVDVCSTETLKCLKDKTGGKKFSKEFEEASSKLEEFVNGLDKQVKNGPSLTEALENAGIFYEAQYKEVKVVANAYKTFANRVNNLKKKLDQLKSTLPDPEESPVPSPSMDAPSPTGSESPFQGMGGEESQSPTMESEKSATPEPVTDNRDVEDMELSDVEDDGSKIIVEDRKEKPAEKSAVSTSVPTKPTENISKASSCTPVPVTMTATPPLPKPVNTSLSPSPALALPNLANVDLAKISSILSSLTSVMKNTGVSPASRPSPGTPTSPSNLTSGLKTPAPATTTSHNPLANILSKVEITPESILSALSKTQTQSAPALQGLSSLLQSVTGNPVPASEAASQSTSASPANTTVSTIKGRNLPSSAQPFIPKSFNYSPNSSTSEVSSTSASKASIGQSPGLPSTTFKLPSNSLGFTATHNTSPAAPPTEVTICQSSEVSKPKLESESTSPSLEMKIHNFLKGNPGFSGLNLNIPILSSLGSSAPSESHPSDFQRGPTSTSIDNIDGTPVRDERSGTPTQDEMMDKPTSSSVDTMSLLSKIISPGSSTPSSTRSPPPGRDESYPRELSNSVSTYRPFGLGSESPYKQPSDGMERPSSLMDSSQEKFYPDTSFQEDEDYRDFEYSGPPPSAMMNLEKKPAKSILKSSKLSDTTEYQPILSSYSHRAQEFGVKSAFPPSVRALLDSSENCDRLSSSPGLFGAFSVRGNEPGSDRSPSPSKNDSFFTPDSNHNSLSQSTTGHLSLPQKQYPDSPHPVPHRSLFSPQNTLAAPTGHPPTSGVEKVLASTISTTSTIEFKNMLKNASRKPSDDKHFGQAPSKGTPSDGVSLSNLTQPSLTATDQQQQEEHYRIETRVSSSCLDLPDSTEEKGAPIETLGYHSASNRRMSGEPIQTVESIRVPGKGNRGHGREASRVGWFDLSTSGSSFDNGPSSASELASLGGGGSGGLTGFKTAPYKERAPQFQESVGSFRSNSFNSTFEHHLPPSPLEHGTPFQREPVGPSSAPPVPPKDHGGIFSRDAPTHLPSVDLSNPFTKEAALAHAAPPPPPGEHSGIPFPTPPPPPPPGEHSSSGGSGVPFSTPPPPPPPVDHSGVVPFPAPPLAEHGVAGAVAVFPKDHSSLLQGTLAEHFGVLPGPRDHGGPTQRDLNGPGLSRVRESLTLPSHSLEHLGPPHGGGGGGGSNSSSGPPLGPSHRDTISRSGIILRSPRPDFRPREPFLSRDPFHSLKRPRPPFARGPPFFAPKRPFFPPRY
Sequence of UniProt Q9UBS0 (Q9UBS0 whole entry): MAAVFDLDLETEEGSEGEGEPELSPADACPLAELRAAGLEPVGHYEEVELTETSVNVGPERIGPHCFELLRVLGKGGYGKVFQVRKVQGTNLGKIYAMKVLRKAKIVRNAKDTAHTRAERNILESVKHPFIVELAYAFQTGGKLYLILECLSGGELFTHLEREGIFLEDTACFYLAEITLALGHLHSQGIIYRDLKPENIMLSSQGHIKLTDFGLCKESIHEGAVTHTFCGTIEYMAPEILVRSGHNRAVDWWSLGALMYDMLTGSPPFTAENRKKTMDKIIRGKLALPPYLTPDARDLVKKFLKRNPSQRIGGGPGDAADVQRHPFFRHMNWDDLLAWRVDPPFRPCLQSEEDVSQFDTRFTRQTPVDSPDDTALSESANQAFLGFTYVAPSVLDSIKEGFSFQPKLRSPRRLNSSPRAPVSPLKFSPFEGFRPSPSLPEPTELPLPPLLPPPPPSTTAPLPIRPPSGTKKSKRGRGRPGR

Target | thermal stability z-score (potassium arsenate) | thermal stability z-score (lipoamide; [1]) | thermal stability z-score (lipoamide; arsenate co-treatment: none)
RPE (UniProt Q96AT9) | -0.0195 | 0.536 | 0.285
RPIA (UniProt P49247) | 0.27 | 0.704 | 0.8
RPL3 (UniProt P39023) | -0.75 | 0.408 | -0.0552
RPL4 (UniProt P36578) | -0.66 | 0.486 | 0.0127
RPL5 (UniProt P46777) | -0.481 | 0.172 | 0.132
RPL6 (UniProt Q02878) | -0.92 | 0.349 | 0.0467
RPL7 (UniProt P18124) | -0.13 | 1.02 | 0.379
RPL7A (UniProt P62424) | -0.955 | 0.455 | 0.197
RPL7L1 (UniProt Q6DKI1) | -0.203 | 0.203 | 0.0421
RPL8 (UniProt P62917) | -1.07 | 0.0892 | -0.22
RPL9 (UniProt P32969) | -0.232 | 0.762 | 0.659
RPL10 (UniProt P27635) | -0.781 | 0.0934 | -0.15
RPL10A (UniProt P62906) | 0.27 | 0.849 | 0.534
RPL11 (UniProt P62913) | -1.44 | 0.156 | 0.371
RPL12 (UniProt P30050) | -0.459 | 0.344 | 0.0511
RPL13 (UniProt P26373) | -1.05 | -0.064 | 0.00879
RPL13A (UniProt P40429) | -0.496 | 0.328 | 0.16
RPL14 (UniProt P50914) | -1.08 | 0.565 | 0.492
RPL15 (UniProt P61313) | -0.589 | 0.537 | 0.113
RPL17 (UniProt P18621) | -0.755 | 0.743 | 0.704
RPL18 (UniProt Q07020) | -0.424 | 0.497 | -0.313
RPL18A (UniProt Q02543) | -0.333 | 0.628 | 0.246
RPL19 (UniProt P84098) | -1.08 | 0.269 | -0.195
RPL21 (UniProt P46778) | -1.03 | 0.61 | 0.308

Target | thermal stability z-score (potassium arsenate) | thermal stability z-score (lipoamide; [1]) | thermal stability z-score (lipoamide; arsenate co-treatment: none)
RPL22 (UniProt P35268) | -0.98 | -0.122 | -0.292
RPL22L1 (UniProt Q6P5R6) | -0.919 | -0.147 | -0.537
RPL23 (UniProt P62829) | -0.839 | 0.548 | -0.122
RPL23A (UniProt P62750) | -1.49 | -0.321 | -0.341
RPL24 (UniProt P83731) | -0.927 | 0.228 | -0.084
RPL26 (UniProt P61254) | -0.347 | 1.18 | 0.347
RPL26L1 (UniProt Q9UNX3) | 0.434 | 0.252 | 0.884
RPL27 (UniProt P61353) | -0.612 | 0.459 | 0.431
RPL27A (UniProt P46776) | -0.482 | 0.419 | 0.401
RPL28 (UniProt P46779) | -0.548 | 0.57 | 0.375
RPL29 (UniProt P47914) | -0.918 | 0.301 | -0.146
RPL30 (UniProt P62888) | -0.666 | 0.771 | 0.183
RPL31 (UniProt P62899) | -0.8 | -0.223 | -0.0856
RPL32 (UniProt P62910) | -0.93 | 0.158 | -0.028
RPL34 (UniProt P49207) | -1.17 | 0.331 | 0.134
RPL35 (UniProt P42766) | -0.812 | 0.579 | 0.674
RPL35A (UniProt P18077) | -0.477 | 0.893 | 0.484
RPL36 (UniProt Q9Y3U8) | -1.19 | 0.354 | -0.0802
RPL37 (UniProt P61927) | -0.915 | 0.254 | 0.203
RPL37A (UniProt P61513) | -0.29 | 0.766 | 0.392
RPL38 (UniProt P63173) | -0.704 | 0.982 | 0.439
RPLP0 (UniProt P05388) | -0.4 | 1.08 | 0.341
RPLP1 (UniProt P05386) | 0.00244 | 1.44 | 0.753
RPLP2 (UniProt P05387) | 0.225 | 1.56 | 1.34

Target | thermal stability z-score (potassium arsenate) | thermal stability z-score (lipoamide; [1]) | thermal stability z-score (lipoamide; arsenate co-treatment: none)
RPN1 (UniProt P04843) | 0.346 | -1.47 | -0.974
RPN2 (UniProt P04844) | 0.141 | -2.41 | -1.79
RPP21 (UniProt Q9H633) | -0.209 | -0.411 | -0.242
RPP25 (UniProt Q9BUL9) | -1.34 | -0.534 | -0.856
RPP25L (UniProt Q8N5L8) | 0.245 | 0.36 | 0.117
RPP30 (UniProt P78346) | -1.55 | -0.9 | -0.668
RPP38 (UniProt P78345) | -0.347 | -0.128 | 0.146
RPP40 (UniProt O75818) | -1.15 | 0.705 | -0.123
RPRD1A (UniProt Q96P16) | -0.037 | -0.123 | -0.0762
RPRD1B (UniProt Q9NQG5) | 0.808 | 0.793 | 0.977
RPRD2 (UniProt Q5VT52) | 0.719 | 1.99 | 1.64
RPS2 (UniProt P15880) | -0.532 | 0.307 | 0.259
RPS3 (UniProt P23396) | -0.627 | 0.354 | 0.207
RPS3A (UniProt P61247) | -0.818 | 0.23 | 0.114
RPS4X (UniProt P62701) | -0.997 | 0.35 | 0.0222
RPS5 (UniProt P46782) | -0.546 | 0.607 | 0.458
RPS6 (UniProt P62753) | -0.404 | 1.06 | 0.834
RPS6KA1 (UniProt Q15418) | 0.0783 | -0.0567 | -0.413
RPS6KA3 (UniProt P51812) | 0.388 | -0.607 | -0.345
RPS6KA4 (UniProt O75676) | 0.0157 | -0.327 | -0.0905
RPS6KB1 (UniProt P23443) | 0.138 | -0.0619 | 0.679
RPS6KB2 (UniProt Q9UBS0) | -0.0668 | 0.0955 | 0.0989
RPS6KC1 (UniProt Q96S38) | -0.393 | -0.161 | -0.151
